Marks after values point to notes of the source that are not given here.
What was measured:
RRMS patients = settings: cited from earlier work
subjects with RRMS [1] = experiment: ALLEGRO sub-study: WM, GM and thalamic volume analysis (3D T1-weighted MRI); assay type: in vivo, human; settings: for Grey matter fraction, % change, median (range) / Thalamic fraction, % change, LS mean (SE) / White matter fraction, % change, median (range): laquinimod 0.6 mg/day oral; for Grey matter fraction, treatment effect (Hodges-Lehmann median estimate for treatment difference) / Thalamic fraction, treatment effect (LS mean difference) / White matter fraction, treatment effect (Hodges-Lehmann median estimate for treatment difference): laquinimod vs placebo; for Treatment effect of laquinimod on thalamic fraction: patients with thalamic lesions at baseline
Method: WM, GM, and thalamic volumes were derived from 3D T1-weighted images at baseline and at months 12 and 24. Patients with baseline and at least one valid scheduled post-baseline MRI were included in the analysis. Patients with thalamic lesions at baseline and a valid post-baseline MRI were included in the thalamic lesion analysis. Longitudinal WM and GM volume changes were calculated as the percentage difference from baseline to months 12 and 24. A separate calculation was performed between months 12 and 24. […] The ANCOVA (SAS® PROC GLM) model used treatment group, baseline value of the outcome, number of GdE lesions at baseline and country/geographic region, as covariates. Additionally, analyses of percentage changes in WM volume were also adjusted for GM volume at baseline due to the imbalance that was found between treatment groups at baseline. The Hodges-Lehmann (HL) large sample median estimator associated with the ranked values analysis approach was used to construct two-sided 95% confidence limits for the difference in treatment effects. Percent thalamic volume changes from baseline to months 12 and 24 followed normal distribution and thus were analysed using a parametric MMRM (SAS® PROC MIXED) model corrected for baseline thalamic volume, number of baseline GdE lesions, country/geographic region, visit, treatment and visit by treatment interaction. The least square (LS) mean difference was used to estimate treatment effect. As noted for the % change in WM and GM volumes, percent thalamic volume change from month 12 to month 24 was analyzed using a separate analysis of covariance (ANCOVA) (SAS® PROC GLM) model, since these values […] from the MMRM model. The ANCOVA model used treatment group, baseline thalamic volume, number of baseline GdE lesions and country/geographic region, as covariates. GM at baseline was used as an additional covariate to account for between treatment group imbalance in this measure at baseline.

subjects with RRMS [2] = experiment: ALLEGRO phase III clinical trial of daily oral laquinimod 0.6 mg in RRMS; assay type: in vivo, human; settings: laquinimod 0.6 mg daily oral, 24 months
Method: A multinational (24 countries), multicenter (approximately 139 sites), randomized, double-blinded, parallel-group, placebo-controlled clinical trial (“ALLEGRO” or MS-LAQ-301) was conducted to evaluate the efficacy, safety and tolerability of daily oral administration of laquinimod 0.6 mg in subjects with RRMS for a 24 months duration. One thousand one hundred and six (1106) patients were equally randomized to either laquinimod 0.6 mg or placebo and treated in a double-blind manner and baseline characteristics were balanced between groups. The primary endpoint of the study was the number of confirmed relapses during the double-blind treatment period, which corresponds to the annualized relapse rate (ARR—number of relapses divided by total exposure of all patients). Secondary endpoints included disability as measured by Expanded Disability Status Scale (EDSS) changes confirmed at 3 months, and cumulative number of gadolinium enhancing (GdE) and new/enlarging T2 MRI lesions. Double blind treatment phase: 24 months of once-daily oral administration of daily dose of 0.6 mg laquinimod or matching placebo. Eligible subjects were equally randomized 1:1 into one of the following treatment arms: • 1. Laquinimod capsules 0.6 mg: One 0.6 mg laquinimod capsule was administered orally once daily. The 0.6 mg laquinimod capsules contain 0.6 mg of Laquinimod Acid per capsule with meglumine, and were manufactured according to the method disclosed in PCT International Application Publication No. WO/2007/146248, published Dec. 21, 2007 (see, page 10, line 5 to page 11, line 3). • 2. Matching placebo for laquinimod arm: one capsule is administered once daily. The primary endpoint was the number of confirmed relapses during the double-blind study period. […] An event was counted as a relapse if the subject's symptoms were accompanied by observed objective neurological changes consistent with at least one of the following: an increase of at least 0.5 in the EDSS score; an increase of one grade in two or more of the seven functional systems; or an increase of two grades in one functional system. […] Secondary endpoints were disability progression as measured by the EDSS and the MSFC. […] Additional predefined disability endpoints include the proportion of patients without confirmed disability progression at 24 months; confirmed disability progression (defined as change in EDSS scores ≧1.0 points for baseline EDSS 0 to 5.0 or ≧5.5) sustained for six months; the accumulation of physical disability as measured by mean EDSS and the mean change in EDSS from baseline to last observed value (LOV). […]

CCN(C(=O)c1c(O)c2c(Cl)cccc2n(C)c1=O)c1ccccc1 [Laquinimod]
Disability and brain atrophy progression (RRMS patients; 0.6 mg/day, RRMS patients): slowed disability and brain atrophy progression | Rate of whole brain atrophy compared with placebo (RRMS patients; ALLEGRO and BRAVO): decreased the rate of whole brain atrophy | Safety and tolerability profile (RRMS patients; two phase III trials): favorable safety and tolerability profile | Grey matter fraction, % change, median (range) (subjects with RRMS [1]; baseline to month 12): −0.3 (−19.4 to 22.4) % | Thalamic fraction, % change, LS mean (SE) (subjects with RRMS [1]; baseline to month 12): −0.6 (0.12) % | White matter fraction, % change, median (range) (subjects with RRMS [1]; baseline to month 12): 0.0 (−24.7 to 11.9) % | Grey matter fraction, treatment effect (Hodges-Lehmann median estimate for treatment difference) (subjects with RRMS [1]; baseline to month 12): 0.502* % | Thalamic fraction, treatment effect (LS mean difference) (subjects with RRMS [1]; baseline to month 12): 0.408^† % | White matter fraction, treatment effect (Hodges-Lehmann median estimate for treatment difference) (subjects with RRMS [1]; baseline to month 12): 0.394* % | Grey matter fraction, % change, median (range) (subjects with RRMS [1]; baseline to month 24): −0.9 (−17.4 to 21.2) % | Thalamic fraction, % change, LS mean (SE) (subjects with RRMS [1]; baseline to month 24): −1.3 (0.15) % | White matter fraction, % change, median (range) (subjects with RRMS [1]; baseline to month 24): −0.3 (−27.3 to 19.2) % | Grey matter fraction, treatment effect (Hodges-Lehmann median estimate for treatment difference) (subjects with RRMS [1]; baseline to month 24): 0.372* % | Thalamic fraction, treatment effect (LS mean difference) (subjects with RRMS [1]; baseline to month 24): 0.60^† % | White matter fraction, treatment effect (Hodges-Lehmann median estimate for treatment difference) (subjects with RRMS [1]; baseline to month 24): 0.327* % | Grey matter fraction, % change, median (range) (subjects with RRMS [1]; month 12 to month 24): −0.7 (−11.5 to 16.6) % | Thalamic fraction, % change, LS mean (SE) (subjects with RRMS [1]; month 12 to month 24): −0.7 (0.13) % | White matter fraction, % change, median (range) (subjects with RRMS [1]; month 12 to month 24): −0.2 (−15.3 to 15.0) % | Grey matter fraction, treatment effect (Hodges-Lehmann median estimate for treatment difference) (subjects with RRMS [1]; month 12 to month 24): −0.078* % | Thalamic fraction, treatment effect (LS mean difference) (subjects with RRMS [1]; month 12 to month 24): 0.233^† % | White matter fraction, treatment effect (Hodges-Lehmann median estimate for treatment difference) (subjects with RRMS [1]; month 12 to month 24): −0.013* % | Treatment effect of laquinimod on thalamic fraction (subjects with RRMS [1]; 12 months (p=0.018)): statistically significant | Treatment effect of laquinimod on thalamic fraction (subjects with RRMS [1]; 24 months (p<0.0001)): statistically significant | Treatment effect of laquinimod on thalamic fraction change vs placebo (subjects with RRMS [1]; patients without T2 thalamic lesions at baseline, month 12 or 24): not significantly different | Annualized relapse rates (subjects with RRMS [2]): effectively reduced annualized relapse rates | Brain atrophy (subjects with RRMS [2]): reduced brain atrophy | Development of new lesions (subjects with RRMS [2]): reduced the development of new lesions | Progression of disability (subjects with RRMS [2]): slowed the progression of disability
